Laboratory results as given in patent US9765105B2, “Macrolide compound” (Pulike Biological Engineering, Inc., priority 2013, dated 2017).

Assays:
[1] = test system: Actinobacillus pleuropneumoniae CVCC262; test: in vitro susceptibility, MIC by mini broth dilution; type: cell-based; settings: strain CVCC262
Summary of the method: (§1)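 NCCLS-based mini broth dilution; inoculum from twice-streaked 35° C/20 h cultures, 1:200 in broth; compound two-fold series in DMSO, 11 steps, duplicates.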

[2] = test system: Haemophilus parasuis; test: as above; type: cell-based
Summary of the method: as §1

[3] = test system: Pasteurella multocida CVCC399; test: as above; type: cell-based; settings: strain CVCC399
Summary of the method: as §1

[4] = test system: Streptococcus equines CVCC556; test: as above; type: cell-based; settings: strain CVCC556
Summary of the method: as §1

[5] = acute oral toxicity test, LD50 by improved karber method; settings: for LD50: per os, gavaged once, in 0.2% sodium carboxymethylcellulose, observed 7 days; for LD50 at 7 days: both, Konmin, mouse, in vivo, po
[6] = test system: Staphylococcus aureus CVCC26003; test: in vitro susceptibility, MIC by mini broth dilution; type: cell-based; settings: strain CVCC26003
Summary of the method: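 S. aureus CVCC26003 was revived and subcultured twice, 20 h each at 35° C, on solid medium, then diluted 1:200 in CAMHB liquid medium. Compounds received an 11-step two-fold DMSO dilution in parallel duplicate rows. MIC was read by mini broth dilution per NCCLS guidance.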

[7] = test system: Streptococcus pneumoniae CMCC 31203; test: in vivo antibacterial test, survival of infected mice; parameters: species or system BALB/c mice; settings: mice infected i.p. with Streptococcus pneumoniae; 5 mg per kg subcutaneous for 3 consecutive days; observed until the seventh day

SMILES	Animal survival rate (surviving/total animals) [7]	LD50 at 7 days [5] [mg/kg]	other results
CCCNC[C@]1(O)[C@H](C)O[C@@H](O[C@H]2[C@H](C)[C@@H](O[C@@H]3O[C@H](C)C[C@H](N(C)C)[C@H]3O)[C@](C)(O)C[C@@H](C)NC[C@H](C)[C@@H](O)[C@](C)(O)[C@@H](CC)OC(=O)[C@@H]2C)C[C@@]1(C)OC [syzx-1, (2R,3S,4R,5S,8R,10R,11R,12S,13S,14R)-13-[(2,6-dideoxy-3-C-methyl-3-O-methyl-4-C-[(propylamino)methyl]-α-L-ribopyranosyl)oxy]-2-ethyl-3,4,10-trihydroxy-3,5,8,10,12,14-hexamethyl-11-[[3,4,6-trideoxy-3-(dimethylamino)-β-D-xylo-hexopyranosy]oxy]-1-oxa-7-azacyclopentadecan-15-one]	8/10		MIC values, Actinobacillus pleuropneumoniae CVCC262 [1]: 0.125 ug/mi; MIC values, Haemophilus parasuis [2]: 0.125 ug/mi; MIC values, Pasteurella multocida CVCC399 [3]: 1 ug/mi; MIC values, Streptococcus equines CVCC556 [4]: 0.125 ug/mi; LD50 [5]: 2584.8 mg/kg; MIC values, Staphylococcus aureus CVCC26003 [6]: 0.125 ug/mi; Animal survival rate [7]: 80%
CC[C@@H]1OC(=O)[C@H](C)[C@H](OC2C[C@@](C)(OC)[C@](O)(CN3CCOCC3)[C@H](C)O2)[C@@H](C)[C@@H](O[C@@H]2O[C@H](C)C[C@H](N(C)C)[C@H]2O)[C@](C)(O)C[C@@H](C)NC[C@@H](C)[C@H](O)[C@]1(C)O (stereo partly drawn) [syzx-5, (2R,3S,4R,5S,8R,10R,11R,12S,13S,14R)-13-[(2,6-dideoxy-3-C-methyl-3-O-methyl-4-C-[(morpholinyl)methyl]-α-L-ribopyranosyl)oxy]-2-ethyl-3,4,10-trihydroxy-3,5,8,10,12,14-hexamethyl-11-[[3,4,6-trideoxy-3-(dimethylamino)-β-D-xylo-hexopyranosy]oxy]-1-oxa-7-azacyclopentadecan-15-one]	7/10	2730	
CC[C@@H]1OC(=O)[C@H](C)[C@H](OC2C[C@@](C)(OC)[C@](O)(CNC3CC3)[C@H](C)O2)[C@@H](C)[C@@H](O[C@@H]2O[C@H](C)C[C@H](N(C)C)[C@H]2O)[C@](C)(O)C[C@@H](C)NC[C@@H](C)[C@H](O)[C@]1(C)O (stereo partly drawn) [syzx-6, (2R,3S,4R,5S,8R,10R,11R,12S,13S,14R)-13-[(2,6-dideoxy-3-C-methyl-3-O-methyl-4-C-[(cyclopropylamino)methyl]-α-L-ribopyranosyl)oxy]-2-ethyl-3,4,10-trihydroxy-3,5,8,10,12,14-hexamethyl-11-[[3,4,6-trideoxy-3-(dimethylamino)-β-D-xylo-hexopyranosy]oxy]-1-oxa-7-azacyclopentadecan-15-one]	8/10	2610	
CCNC[C@]1(O)[C@H](C)OC(O[C@@H]2[C@@H](C)[C@@H](O[C@@H]3O[C@H](C)C[C@H](N(C)C)[C@H]3O)[C@](C)(O)C[C@@H](C)NC[C@@H](C)[C@H](O)[C@](C)(O)[C@H](CC)OC(=O)[C@@H]2C)C[C@@]1(C)OC (stereo partly drawn) [syzx-10, (2R,3S,4R,5S,8R,10R,11R,12S,13S,14R)-13-[(2,6-dideoxy-3-C-methyl-3-O-methyl-4-C-[(ethylamino)methyl]-α-L-ribopyranosyl)oxy]-2-ethyl-3,4,10-trihydroxy-3,5,8,10,12,14-hexamethyl-11-[[3,4,6-trideoxy-3-(dimethylamino)-β-D-xylo-hexopyranosy]oxy]-1-oxa-7-azacyclopentadecan-15-one]	9/10	2810	
CC[C@@H]1OC(=O)[C@H](C)[C@H](OC2C[C@@](C)(OC)[C@](O)(CNC(C)C)[C@H](C)O2)[C@@H](C)[C@@H](O[C@@H]2O[C@H](C)C[C@H](N(C)C)[C@H]2O)[C@](C)(O)C[C@@H](C)NC[C@@H](C)[C@H](O)[C@]1(C)O (stereo partly drawn) [syzx-11, (2R,3S,4R,5S,8R,10R,11R,12S,13S,14R)-13-[(2,6-dideoxy-3-C-methyl-3-O-methyl-4-C-[(isopropylamino)methyl]-α-L-ribopyranosyl)oxy]-2-ethyl-3,4,10-trihydroxy-3,5,8,10,12,14-hexamethyl-11-[[3,4,6-trideoxy-3-(dimethylamino)-β-D-xylo-hexopyranosy]oxy]-1-oxa-7-azacyclopentadecan-15-one]	8/10	4200	
CC[C@@H]1OC(=O)[C@H](C)[C@H](OC2C[C@@](C)(OC)[C@](O)(CNCC(C)C)[C@H](C)O2)[C@@H](C)[C@@H](O[C@@H]2O[C@H](C)C[C@H](N(C)C)[C@H]2O)[C@](C)(O)C[C@@H](C)NC[C@@H](C)[C@H](O)[C@]1(C)O (stereo partly drawn) [syzx-12, (2R,3S,4R,5S,8R,10R,11R,12S,13S,14R)-13-[(2,6-dideoxy-3-C-methyl-3-O-methyl-4-C-[(isobutylamino)methyl]-α-L-ribopyranosyl)oxy]-2-ethyl-3,4,10-trihydroxy-3,5,8,10,12,14-hexamethyl-11-[[3,4,6-trideoxy-3-(dimethylamino)-β-D-xylo-hexopyranosy]oxy]-1-oxa-7-azacyclopentadecan-15-one]	8/10	4310	
CC[C@@H]1OC(=O)[C@H](C)[C@H](OC2C[C@@](C)(OC)[C@](O)(CNC(C)(C)C)[C@H](C)O2)[C@@H](C)[C@@H](O[C@@H]2O[C@H](C)C[C@H](N(C)C)[C@H]2O)[C@](C)(O)C[C@@H](C)NC[C@@H](C)[C@H](O)[C@]1(C)O (stereo partly drawn) [syzx-14]	8/10	2590	
CC[C@@H]1OC(=O)[C@H](C)[C@H](OC2C[C@@](C)(OC)[C@](O)(CN3CCCCC3)[C@H](C)O2)[C@@H](C)[C@@H](O[C@@H]2O[C@H](C)C[C@H](N(C)C)[C@H]2O)[C@](C)(O)C[C@@H](C)NC[C@@H](C)[C@H](O)[C@]1(C)O (stereo partly drawn) [syzx-15, (2R,3S,4R,5S,8R,10R,11R,12S,13S,14R)-13-[(2,6-dideoxy-3-C-methyl-3-O-methyl-4-C-[piperidinylmethyl]-α-L-ribopyranosyl)oxy]-2-ethyl-3,4,10-trihydroxy-3,5,8,10,12,14-hexamethyl-11-[[3,4,6-trideoxy-3-(dimethylamino)-β-D-xylo-hexopyranosy]oxy]-1-oxa-7-azacyclopentadecan-15-one]	8/10	2660	
CC[C@@H]1OC(=O)[C@H](C)[C@H](OC2C[C@@](C)(OC)[C@](O)(CNCC3CC3)[C@H](C)O2)[C@@H](C)[C@@H](O[C@@H]2O[C@H](C)C[C@H](N(C)C)[C@H]2O)[C@](C)(O)C[C@@H](C)NC[C@@H](C)[C@H](O)[C@]1(C)O (stereo partly drawn) [syzx-17, (2R,3S,4R,5S,8R,10R,11R,12S,13S,14R)-13-[(2,6-dideoxy-3-C-methyl-3-O-methyl-4-C-[(cyclopropylmethylamino)methyl]-α-L-ribopyranosyl)oxy]-2-ethyl-3,4,10-trihydroxy-3,5,8,10,12,14-hexamethyl-11-[[3,4,6-trideoxy-3-(dimethylamino)-β-D-xylo-hexopyranosy]oxy]-1-oxa-7-azacyclopentadecan-15-one]	8/10	2670	
CC[C@@H]1OC(=O)[C@H](C)[C@H](OC2C[C@@](C)(OC)[C@](O)(CNCCOC)[C@H](C)O2)[C@@H](C)[C@@H](O[C@@H]2O[C@H](C)C[C@H](N(C)C)[C@H]2O)[C@](C)(O)C[C@@H](C)NC[C@@H](C)[C@H](O)[C@]1(C)O (stereo partly drawn) [syzx-58]	8/10	3550	
CCCNC[C@]1(O)[C@H](C)O[C@@H](O[C@H]2[C@H](C)[C@@H](O[C@@H]3O[C@H](C)C[C@H](N(C)C)[C@H]3O)[C@](C)(O)C[C@@H](C)N(CCC)C[C@H](C)[C@@H](O)[C@](C)(O)[C@@H](CC)OC(=O)[C@@H]2C)C[C@@]1(C)OC [syzx-101, (2R,3S,4R,5S,8R,10R,11R,12S,13S,14R)-13-[(2,6-dideoxy-3-C-methyl-3-O-methyl-4-C-[(n-propylamino)-methyl]-α-L-ribopyranosyl)oxy]-2-ethyl-3,4,10-trihydroxy-3,5,8,10,12,14-hexamethyl-7-propyl-11-[[3,4,6-trideoxy-3-(dimethylamino)-β-D-xylo-hexopyranosy]oxy]-1-oxa-7-azacyclopentadecan-15-one]	9/10		MIC values, Actinobacillus pleuropneumoniae CVCC262 [1]: 0.125 ug/mi; MIC values, Haemophilus parasuis [2]: 0.125 ug/mi; MIC values, Pasteurella multocida CVCC399 [3]: 0.125 ug/mi; MIC values, Streptococcus equines CVCC556 [4]: 0.125 ug/mi; LD50 [5]: 3760.6 mg/kg; MIC values, Staphylococcus aureus CVCC26003 [6]: 0.125 ug/mi; Animal survival rate [7]: 90%
CCCN1C[C@@H](C)[C@@H](O)[C@](C)(O)[C@H](CC)OC(=O)[C@H](C)[C@H](OC2C[C@@](C)(OC)[C@](O)(CN(C)CC)[C@H](C)O2)[C@H](C)[C@@H](O[C@@H]2O[C@H](C)C[C@H](N(C)C)[C@H]2O)[C@](C)(O)C[C@H]1C (stereo partly drawn) [syzx-213]	9/10	2790	
